Measured values reported in patent publication US20090137451A1, “Methods for Assessing Suitability of Cancer Patients for Treatment with Histone Deacetylase Inhibitors” (Agency for Science, Technology and Research, priority 2005, published 2009).

Legend:
Assay type in all cases: cell-based, human
[1] = system: ER-E2F1 expressing HCT116 p53 null cells; experiment: Cell death (sub-G1) by PI staining and FACS in ER-E2F1 expressing cells; conditions: for sub-G1 cells indicative of cell death: 48 h; for SAHA-induced apoptosis (cells in Sub-G1): in the presence of 4-OHT, SAHA 24 h
Protocol: The effect of Bim-specific siRNA on HDACI-induced apoptosis upon E2F1 overexpression. (a) ER-E2F1 were transfected with nonspecific control siRNA (NC siRNA) or Bim-specific siRNA for 48 h, and then either left untreated (−) or treated with 4-OHT, SAHA or both for additional 24 h. […] Cell death was analyzed by flow cytometry following propidium iodide staining (right panel). The percentages of cells in Sub-G1 are indicated. (b) ER-E2F1 were transfected with nonspecific control siRNA (NC siRNA) or Bim-specific siRNA for 48 h, and then either left untreated (−) or treated with 4-OHT, 100 nM TSA or both for additional 48 h.
Cells were harvested and fixed in 70% ethanol. Fixed cells were stained with propidium iodide (50 μg/ml) after treatment with RNase (100 μg/ml). The stained cells were analyzed for DNA content by fluorescence-activated cell sorting (FACS) in a FACScalibur (Becton Dickinson Instrument, San Jose, Calif.). Cell cycle fractions were quantified using the CellQuest software (Becton Dickinson).
To definitively establish the role of Bim in HDACIs-induced apoptosis upon E2F1 activation, we used RNA interference to silence Bim expression and analyzed its biological effects. To this end, we transfected ER-E2F1 expressing cells with Bim-specific siRNA and treated with SAHA for 24 h in the presence or absence of 4-OHT. As controls, cells were also transfected with an irrelevant siRNA.

[2] = system: ER-E2F1 expressing cells; experiment: Colony formation assay; conditions: 100 nM TSA or 1 μM SAHA for 24 h, with 4-OHT; colonies stained with crystal violet
Protocol: FIG. 1. HDACIs SAHA and TSA promote E2F1-mediated cell death (a) p53 null HCT116-ER-E2F1 expressing cells or control ER expressing cells were treated with or without 4-OHT. Cyclin E and p73 expression were evaluated by immunoblot analysis. (b) ER-E2F1 expressing or control cells were treated with 1 μM SAHA (left panel) or 100 nM TSA (right panel), in the presence or absence of 4-OHT. After 48 h, cells were harvested and cell death was assessed by PI staining using FACS. Mean results of three independent experiments were shown with standard deviations. (c) Colony formation assay. […] (d) Saos-2 and HCT116 cells infected with adenovirus containing E2F1 or LacZ as indicated were treated with 100 nM TSA for 24 h, and cell death was analyzed by FACS.
1000 cells were plated per well of a 6-well plate for 24-48 h and then followed by 100 nM TSA or 1 μM SAHA treatment in the presence or absence of 4-OHT. […] Colonies were stained with crystal violet and counted after 12 days.
To investigate whether E2F1 activation induces sensitization of cells to HDACIs-induced cell death, we analyzed the cell cycle profiles by FACS (fluorescence-activated cell sorter) in ER-E2F1 expressing HCT116 p53 null cells (ER-E2F1) and the control cells expressing ER-binding domain only (ER) following treatment with the HDACIs SAHA or TSA in the presence or absence of 4-OHT. […]

[3] = system: E1A-transformed IMR90 cells; experiment: Apoptosis by FACS analysis in E1A-transformed IMR90 cells; conditions: SAHA 2.5 μM, TSA 300 nM; 48 h
Protocol: FIG. 5. Rb inactivation enhances Bim expression and sensitizes HDACIs-induced apoptosis. (a) U2OS cells were infected with Ad-E1A or Ad-LacZ for 24 h and treated with SAHA (1 μM) for additional 48 h. Cell death was determined by FACS analysis (right panel), and the levels of Bim and p73 were assessed by immunoblotting using antibodies against the indicated proteins (left panel). (b) Normal IMR90 and transformed IMR90-E1A cells were treated with SAHA at indicated concentrations and cell proliferation was evaluated for indicated times. (c) Expression of E1A results in upregulation of Bim and apoptosis potentiation in response to SAHA and TSA. […] Cell death was determined by FACS analysis (left panel), and the levels of Bim and p73 were assessed by immunoblotting using antibodies against indicated proteins (right panel). […] The expressions of Bim and β-actin were assessed by immunoblotting using antibodies against the indicated proteins. Apoptosis was evaluated by FACS analysis. […] The expressions of E2F1, Bim and PARP were assessed by immunoblotting using antibodies against the indicated proteins. […] Apoptosis was evaluated by FACS analysis.
Cells were harvested and fixed in 70% ethanol. […] The stained cells were analyzed for DNA content by fluorescence-activated cell sorting (FACS) in a FACScalibur (Becton Dickinson Instrument, San Jose, Calif.). […]

[4] = system: normal IMR90 cells; experiment: Cell proliferation, dose-response, normal IMR90 cells; conditions: dose-response study, FIG. 5b
Protocol: (§1) FIG. 5. Rb inactivation enhances Bim expression and sensitizes HDACIs-induced apoptosis. (a) U2OS cells were infected with Ad-E1A or Ad-LacZ for 24 h and treated with SAHA (1 μM) for additional 48 h. Cell death was determined by FACS analysis (right panel), and the levels of Bim and p73 were assessed by immunoblotting using antibodies against the indicated proteins (left panel). (b) Normal IMR90 and transformed IMR90-E1A cells were treated with SAHA at indicated concentrations and cell proliferation was evaluated for indicated times. (c) Expression of E1A results in upregulation of Bim and apoptosis potentiation in response to SAHA and TSA. IMR90 and IMR90-E1A cells were treated with SAHA (2.5 μM) and TSA (300 nM) for 48 h. Cell death was determined by FACS analysis (left panel), and the levels of Bim and p73 were assessed by immunoblotting using antibodies against indicated proteins (right panel). (d) IMR90-E1A cells transfected with Bim siRNA or control siRNA (NC siRNA) were treated with TSA (800 nM) for 24 h. The expressions of Bim and β-actin were assessed by immunoblotting using antibodies against the indicated proteins. Apoptosis was evaluated by FACS analysis. […] The expressions of E2F1, Bim and PARP were assessed by immunoblotting using antibodies against the indicated proteins. […] Apoptosis was evaluated by FACS analysis. […]

[5] = system: transformed IMR90-E1A cells; experiment: Cell proliferation, dose-response, transformed IMR90-E1A cells; conditions: dose-response study, FIG. 5b
Protocol: as §1

[6] = both 4-OHT and HDACI (1 μM SAHA or 100 nM TSA)
[7] = agent alone, 1 μM SAHA, PI staining FACS

Compound | sub-G1 cells indicative of cell death [1, 6] | effect of E2F1 activation by 4-OHT on HDACI-induced growth inhibition [2] | apoptosis [3] | proliferation [4] | sub-G1 cells indicative of cell death [1, 7] | SAHA-induced apoptosis (cells in Sub-G1) ([1]; cells treated with Bim siRNA) | SAHA-induced apoptosis (cells in Sub-G1) ([1]; control siRNA treated cells) | proliferation [5]
CC(/C=C/C(=O)NO)=C\[C@@H](C)C(=O)c1ccc(N(C)C)cc1 [TSA, Trichostatin A] | Identical results | greatly promoted | ~60% |  |  |  |  | 
O=C(CCCCCCC(=O)Nc1ccccc1)NO [SAHA, suberoylanilide hydroxamic acid] | 75% | greatly promoted | ~60% | substantially inhibited proliferation | ~23% | 18% | 49% | substantially inhibited proliferation
4-hydroxytamoxifen [4-OHT] |  |  |  |  | approximately 13% |  |  | 
